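Following 48 hours of exposure in 96-well plates, responses at five concentrations were used to interpolate endpoints linearly. Abbreviation: GI50, concentration required for 50% inhibition of growth.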 Calls of active or inactive are those of the source. No stated cut-off is given here; in the data, active = GI50 up to about 1.1 µM and inactive = higher.
Experiments:
Experiment in all cases: NCI-60 cell line screen, 48 h
[1] = tested on: HCT-116
[2] = tested on: HT-29
[3] = tested on: KM12
[4] = tested on: MOLT-4
[5] = tested on: NCI-H226
[6] = tested on: NCI-H460
[7] = tested on: NCI-H522
[8] = tested on: OVCAR-8
[9] = tested on: SF-539
[10] = tested on: SK-OV-3
[11] = tested on: SN12C
[12] = tested on: SW-620
[13] = tested on: UO-31
[14] = tested on: RXF 393
[15] = tested on: U-251
[16] = tested on: A498
[17] = tested on: EKVX

Measured: GI50

O=C(CCC(=O)Nc1ccc(Cl)cc1)CC(=O)c1ccc(F)cc1
inactive: [1] > 100 µM | [2] > 100 µM | [3] > 100 µM | [4] > 100 µM | [5] > 100 µM | [6] > 100 µM | [7] > 100 µM | [8] > 100 µM | [9] > 100 µM | [10] > 100 µM | [11] > 100 µM | [12] > 100 µM | [13] > 100 µM

CCN1CCN(c2ccc(Nc3ccnc4ccc5nn(C)nc5c34)cc2)CC1
inactive: [1] 5.58 µM | [2] 4.26 µM | [3] 10.7 µM | [4] 4.5 µM | [5] 12.3 µM | [6] 5.41 µM | [7] 11.1 µM | [8] 9.71 µM | [14] 10.2 µM | [9] 13.8 µM | [10] 13.8 µM | [11] 10.7 µM | [12] 4.22 µM | [15] 13.5 µM | [13] 12.8 µM

NC(=S)N/N=C(\C(=O)Nc1ccc(Cl)c(Cl)c1)C1=NN(c2ccccc2)C(c2cccc([N+](=O)[O-])c2)CC1=O (configuration not stated)
inactive: [16] > 100 µM | [17] > 100 µM | [1] 4.29 µM | [2] 16.5 µM | [3] 85.9 µM | [4] 17.3 µM | [5] 25.9 µM | [6] 36.6 µM | [8] 26.7 µM | [9] 23.8 µM | [10] 30.5 µM | [11] 16.8 µM | [12] 13.8 µM | [15] 4.31 µM | [13] 30.3 µM

Cc1cccc2c(=O)cc(-c3ccccc3)[nH]c12
inactive: [16] 5.3 µM | [17] 46.2 µM | [1] 5.06 µM | [2] 3.1 µM | [4] 4.54 µM | [5] 20.2 µM | [6] 3.95 µM | [14] 3.62 µM | [9] 5.69 µM | [11] 5.42 µM | [12] 2.6 µM | [15] 21.9 µM | [13] 15.6 µM

COC(=O)/C(=N\Nc1nnc(C)n1N)C(C#N)c1ccc(Cl)cc1 (configuration not stated)
inactive: [16] > 100 µM | [17] > 100 µM | [1] > 100 µM | [2] > 100 µM | [3] > 100 µM | [5] > 100 µM | [6] > 100 µM | [8] > 100 µM | [14] > 100 µM | [9] > 100 µM | [10] > 100 µM | [11] > 100 µM | [12] > 100 µM | [15] > 100 µM | [13] > 100 µM

COc1ccc(/C=N\N2C(=O)Cc3ccccc32)cc1
inactive: [16] > 100 µM | [17] > 100 µM | [1] > 100 µM | [2] > 100 µM | [3] > 100 µM | [4] 41.4 µM | [5] > 100 µM | [6] > 100 µM | [8] > 100 µM | [9] 39 µM | [10] > 100 µM | [12] > 100 µM | [15] 48.4 µM | [13] 39.3 µM

CCOC(=O)NC(=O)c1cn(C2OC(COC(=O)CCCCCCCCC(=O)OCC3OC(n4cc(C(=O)NC(=O)OCC)c(=O)[nH]c4=O)C(O)C3O)C(O)C2O)c(=O)[nH]c1=O (configuration not stated)
inactive: [16] > 100 µM | [17] > 100 µM | [1] > 100 µM | [2] > 100 µM | [3] > 100 µM | [4] > 100 µM | [5] > 100 µM | [6] > 100 µM | [8] > 100 µM | [14] > 100 µM | [9] > 100 µM | [11] > 100 µM | [12] > 100 µM | [13] > 100 µM

N#Cc1ccc(C(C2C(=O)NC(=O)NC2=O)C2C(=O)NC(=O)NC2=O)cc1
inactive: [17] > 100 µM | [1] > 100 µM | [2] > 100 µM | [3] > 100 µM | [4] > 100 µM | [5] > 100 µM | [6] > 100 µM | [7] > 100 µM | [8] > 100 µM | [9] > 100 µM | [10] > 100 µM | [11] > 100 µM | [12] > 100 µM | [15] > 100 µM | [13] > 100 µM

N#CC(C(=O)/C(=N\Nc1nc(S)nn1N)C(C#N)c1ccc(Cl)cc1)c1ccc(Cl)cc1 (configuration not stated)
inactive: [16] > 100 µM | [17] > 100 µM | [1] > 100 µM | [2] > 100 µM | [3] > 100 µM | [5] > 100 µM | [6] > 100 µM | [8] > 100 µM | [14] > 100 µM | [9] > 100 µM | [10] > 100 µM | [11] > 100 µM | [12] > 100 µM | [15] > 100 µM | [13] > 100 µM

CC(C)(C)C1=Cc2cc3cc(C(C)(C)C)[nH]c(=O)c3cc2S(=O)(=O)N1
inactive: [16] 53.2 µM | [17] 17.3 µM | [1] 20.5 µM | [2] 22.9 µM | [3] 30.6 µM | [4] 28.1 µM | [5] 19.9 µM | [6] 37 µM | [7] 15.3 µM | [8] 39.8 µM | [10] 31.2 µM | [11] 42.7 µM | [12] 21 µM | [15] 18 µM | [13] 17.1 µM

CCOC(=O)/C(C(=O)c1ccccc1)=C1\N[C@H](C(=O)OCC)CS1
inactive: [17] > 100 µM | [1] > 100 µM | [2] > 100 µM | [3] > 100 µM | [4] > 100 µM | [5] > 100 µM | [6] > 100 µM | [7] > 100 µM | [8] > 100 µM | [14] > 100 µM | [9] 10 µM | [11] > 100 µM | [12] > 100 µM | [15] > 100 µM | [13] > 100 µM

COC1OC(OC)C2C(c3c(C)cc(C)cc3C)=NOC12 (configuration not stated)
inactive: [17] > 100 µM | [1] > 100 µM | [2] > 100 µM | [3] > 100 µM | [4] > 100 µM | [5] > 100 µM | [6] > 100 µM | [7] > 100 µM | [8] > 100 µM | [14] > 100 µM | [10] > 100 µM | [12] > 100 µM | [15] 20.3 µM | [13] > 100 µM

O=C(O)CCc1nn2c(nc1=O)sc1ccc3ccccc3c12
inactive: [17] > 100 µM | [1] > 100 µM | [2] > 100 µM | [4] > 100 µM | [5] > 100 µM | [6] > 100 µM | [8] > 100 µM | [14] > 100 µM | [9] > 100 µM | [10] > 100 µM | [11] > 100 µM | [12] > 100 µM | [15] > 100 µM | [13] > 100 µM

From ChEMBL document CHEMBL1201862, “PubChem BioAssay data set” (2004)
